Test results published in paper PMC9710212 (Chemical Science, 2022).
Blank lines part the entries; values can stand above or below the molecule they belong to. Peptide text beside a SMILES is read from it. * marks the point of attachment. Cbz = O=C(OCc1ccccc1)*

What was measured:
PARP16 [1] = molecular target: T1, PARP16 (Homo sapiens, UniProt Q8N5Y8); assay: Nutrient starvation; assay type: cell-based; settings: HAP1 WT, HBSS 16 h; for effect on PARP16 levels under amino acid and serum starvation: 10 μM MG132, 1 μM bafilomycin A1, 50 μM chloroquine
T1 sequence (Q8N5Y8 1-322): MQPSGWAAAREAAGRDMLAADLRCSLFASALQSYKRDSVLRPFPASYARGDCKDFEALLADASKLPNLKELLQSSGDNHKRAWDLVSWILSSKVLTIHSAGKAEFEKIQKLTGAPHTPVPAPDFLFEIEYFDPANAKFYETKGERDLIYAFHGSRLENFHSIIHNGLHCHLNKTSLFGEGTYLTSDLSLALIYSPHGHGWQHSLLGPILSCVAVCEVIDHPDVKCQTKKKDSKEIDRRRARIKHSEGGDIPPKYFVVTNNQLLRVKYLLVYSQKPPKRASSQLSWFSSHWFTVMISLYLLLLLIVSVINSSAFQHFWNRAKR

PARP1 [2] = molecular target: T2, PARP1 (Homo sapiens, UniProt P09874); assay: PASTA biochemical plate assay
SUMO-PARP16ΔTM = molecular target: T3, SUMO-PARP16ΔTM (Homo sapiens, UniProt Q8N5Y8); assay: Whole-protein electrospray ionization; assay type: binding; settings: 50- or 100-fold excess of HJ-52
T3 sequence (Q8N5Y8 1-287 limits assumed): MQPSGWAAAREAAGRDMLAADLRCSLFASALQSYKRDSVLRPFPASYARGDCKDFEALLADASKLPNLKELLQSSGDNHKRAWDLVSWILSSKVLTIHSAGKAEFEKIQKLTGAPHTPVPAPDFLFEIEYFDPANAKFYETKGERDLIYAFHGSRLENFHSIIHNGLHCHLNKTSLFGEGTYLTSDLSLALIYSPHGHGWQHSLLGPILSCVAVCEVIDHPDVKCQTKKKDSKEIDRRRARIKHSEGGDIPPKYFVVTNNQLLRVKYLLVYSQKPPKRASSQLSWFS

PARP16ΔTM = molecular target: T4, PARP16ΔTM (Homo sapiens, UniProt Q8N5Y8); assay: in vitro MARylation assay; assay type: biochemical
T4 sequence (Q8N5Y8 1-287 limits assumed): T3 sequence (Q8N5Y8 1-287 limits assumed)

PARP1 [3] = molecular target: T2, PARP1; assay: Cellular PARylation assay in HEK 293T cells; assay type: cell-based
PARP16 [4] = settings: cited from earlier work
PARP16 [5] = molecular target: T1, PARP16; assay: In vitro competition assay of DB008 labeling; assay type: binding; settings: 1 μM competitor, 40 min, then DB008 20 min

T2 sequence (P09874 whole entry): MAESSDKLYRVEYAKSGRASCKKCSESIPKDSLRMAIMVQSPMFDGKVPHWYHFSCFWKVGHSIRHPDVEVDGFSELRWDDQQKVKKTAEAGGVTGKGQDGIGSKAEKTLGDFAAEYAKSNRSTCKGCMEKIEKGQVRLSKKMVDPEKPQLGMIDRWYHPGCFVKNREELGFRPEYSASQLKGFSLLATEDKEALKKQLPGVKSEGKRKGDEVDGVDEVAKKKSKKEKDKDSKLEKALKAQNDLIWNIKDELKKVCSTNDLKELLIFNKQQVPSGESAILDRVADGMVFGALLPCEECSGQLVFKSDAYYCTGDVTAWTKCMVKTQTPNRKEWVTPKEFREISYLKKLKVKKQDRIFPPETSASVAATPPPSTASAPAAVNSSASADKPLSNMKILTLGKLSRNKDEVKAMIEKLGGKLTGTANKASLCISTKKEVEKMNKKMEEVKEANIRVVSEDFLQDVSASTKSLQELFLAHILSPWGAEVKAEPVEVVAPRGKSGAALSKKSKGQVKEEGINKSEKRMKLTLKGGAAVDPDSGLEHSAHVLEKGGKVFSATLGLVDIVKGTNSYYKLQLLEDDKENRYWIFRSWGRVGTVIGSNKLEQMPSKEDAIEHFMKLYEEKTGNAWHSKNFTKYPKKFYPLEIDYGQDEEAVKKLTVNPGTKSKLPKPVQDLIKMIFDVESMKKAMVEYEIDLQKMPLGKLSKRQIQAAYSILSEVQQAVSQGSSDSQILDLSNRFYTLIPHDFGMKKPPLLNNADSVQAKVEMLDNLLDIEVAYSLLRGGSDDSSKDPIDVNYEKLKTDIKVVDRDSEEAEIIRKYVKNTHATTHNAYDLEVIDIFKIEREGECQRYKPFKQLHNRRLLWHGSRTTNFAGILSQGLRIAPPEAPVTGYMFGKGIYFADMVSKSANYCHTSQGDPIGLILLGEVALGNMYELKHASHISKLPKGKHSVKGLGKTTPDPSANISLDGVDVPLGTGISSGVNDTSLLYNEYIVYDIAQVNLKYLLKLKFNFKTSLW

Structure (SMILES): CO/C1=C\C(C)=C\[C@@H](C)[C@@H](O)[C@@H](C)C/C(C)=C/C=C/[C@H](OC)[C@@H]([C@@H](C)[C@@H](O)[C@H](C)[C@@]2(O)C[C@@H](O)[C@H](C)[C@@H](C(C)C)O2)OC1=O [bafilomycin A1]
effect on PARP16 levels under amino acid and serum starvation (PARP16 [1]): did not impact PARP16 levels

Structure (SMILES): Cn1ncnc1[C@H]1c2n[nH]c(=O)c3cc(F)cc(c23)N[C@@H]1c1ccc(F)cc1 [talazoparib]
inhibition of recombinant PARP16 (PARP16 [4]): sub-micromolar potency
competition of DB008 labeling (PARP16 [5]): ~70%
effect on PARP16 levels in RIPA-soluble fraction (PARP16 [1]): increased, dose dependently
effect on starvation-induced increase of PARP16 in RIPA-insoluble fraction (PARP16 [1]): counteracted in a dose-dependent manner

The next lines start with the values.

IC50 (PARP1 [2]): 0.019 µM
potency against PARP1 relative to olaparib (PARP1 [2]): equipotent
covalent complex formation with SUMO-PARP16ΔTM (SUMO-PARP16ΔTM): 1 : 1 covalent complex
IC50 (PARP16ΔTM): 1.18 µM
fold more potent against PARP16 than olaparib (PARP16ΔTM): about 2.5 fold
potency against PARP1 in cellular PARylation assay (PARP1 [3]): low nanomolar potency
Structure (SMILES): C=CC(=O)N1CCN(C(=O)c2cc(Cc3n[nH]c(=O)c4ccccc34)ccc2F)CC1 [HJ-52, 4-(3-(4-acryloylpiperazine-1-carbonyl)-4-fluorobenzyl)phthalazin-1(2H)-one]

effect on PARP16 levels under amino acid and serum starvation (PARP16 [1]): did not impact PARP16 levels
Structure (SMILES): CCN(CC)CCCC(C)Nc1ccnc2cc(Cl)ccc12 (centres unmarked) [chloroquine]

effect on PARP16 levels under amino acid and serum starvation (PARP16 [1]): did not impact PARP16 levels
Structure (SMILES): CC(C)C[C@@H](C=O)NC(=O)[C@H](CC(C)C)NC(=O)[C@H](CC(C)C)NC(=O)OCc1ccccc1 [MG132] (Cbz-Leu-Leu-Leu-aldehyde)
